Experimental findings from patent US20240103005A1, “N-ACRYLOYLINDOLES AND METHODS OF USE” (The University of Hong Kong, priority 2022, published 2024) are described below.

pIC50: −log10 of the molar value. Bounds are passed on as bounds.

The subject of series [1] is HepG2 cells. In words: MS-based ABPP, live-cell cysteine labeling of HepG2 cells. The arrangement: species or system human. The following applies: 10 μM, 1 h. How it is done:
MS-Based ABPP Experiments to Identify Liganded Cysteines in HepG2 Cells by Live-Cell Labeling Using NAIA-5 or IAA.
HepG2 cells were plated on 15 cm tissue culture plates and allowed to grow in complete medium at 37° C. with 5% CO2 to ca. 80% confluency. The cells were then treated with NAIA-5 and IAA (10 μM), respectively, in complete medium and incubated at 37° C. with 5% CO2 for 1 h. The cells were washed, scrapped in PBS and lysed by sonication. After BCA assay, the cell lysates were diluted to 2 mg/mL, and 2 mL of the lysates were used for n=1 sample preparation. The lysates were then subjected to CuAAC reaction with DTB-PEG-azide, acetone precipitation, enrichment by streptavidin beads, reduction by TCEP followed by cysteine carbamidomethylation and tryptic digestion according to the same procedure described for the sample preparation of HepG2 cell lysate experiment except no pairing of the NAIA-5- and IAA-labeled samples. The probe-modified peptides were then eluted by elution buffer solution (MeCN/H2O, 1:1, v/v; with 0.1% formic acid), dried, desalted by C18 Stage tips and sent for LC-MS/MS analysis using Aurora C18 UHPLC column (75 μm i.d.×25 cm length×1.6 μm particle size; IonOpticks, Australia) coupled to timsTOF Pro mass spectrometer (Bruker), with the same experimental settings as described for the experiment on HepG2 cell lysates. […]

Series [2] deals with HepG2 cells. In words: MTT cell viability assay. Type of series: cell-based. The protocol:
MTT Cell Viability Assay of Cells Treated with NAIA-5
HepG2 cells were plated on 96-well plates (Corning, 3904) at 30,000 cells per well in 100 μL of complete medium and allowed to grow overnight. The cells were then incubated with DMSO solvent control or NAIA-5 at indicated concentrations for 1 h. The treated cells were then added with 10 μL of MTT solution in PBS (5 mg/mL) and incubated in dark at 37° C. with 5% CO2 for 4 h. After that, 100 μL of SDS solution in PBS ([…] with 0.01M HCl) was added for cell lysis. The plates were kept in dark overnight and cell viability were assayed by the absorption at 580 nm on Perkin Elmer Victor 3 ([…]).

The nature of series [3]: Stability in aqueous buffer solution over time (LC-MS). Type of series: physicochemical. The protocol:
Stability of NAIA-5 in Aqueous Buffer Solution Over Time
NAIA-5 (10 μM) was dissolved in PBS/MeOH solution mixture (4:1, v/v; 500 μL) and stay at room temperature. At predetermined time intervals, an aliquot of the reaction mixture (10 μL) was sent for LC-MS analysis on Waters Autopurification System using a SunFire C18 HPLC column (50×4.6 mm with 5 μm diameter particles, Waters). Separation was achieved by gradient elution from 5% to 100% MeCN in water (constant 0.1 vol % formic acid) over 4 min, isocratic elution with 100% MeCN (with 0.1 vol % formic acid) from 4 to 8 min and returning to 5% MeCN in water (with 0.1 vol % formic acid) and equilibrated for 2 min. Selected ion chromatograms, with m/z=325 corresponding to [NAIA-5+H]^+, were extracted and analyzed by integrating the area under curve.
As fast-reacting probes are often susceptible to hydrolysis, we sought to investigate the aqueous stability of NAIA-C5 amide. […] Taking the excellent reaction kinetics and a mere 14% degradation in 30 min into account, NAIA-C5 amide was considered to be a useful tool in cysteine profiling (FIG. 17C and FIG. 17F).

Another series concerns 231MFP cells. In words: WST-8 cell viability assay. Type of series: cell-based. How it is done: WST-8 Cell Viability Assay of Cells Treated with NAIA-4 or IAA
231MFP cells were plated on 96-well plates (Corning, 3904) at 30,000 cells per well and allowed to grow in complete medium overnight. The cells were then incubated with DMSO solvent control, NAIA-4 or IAA at indicated concentrations for 2 h. The solution was replaced with new culture medium containing 10 μL of WST-8 solution (Abcam; ab228554) and incubated for 2 h in dark at 37° C. Cell viability were then assayed by the absorption at 460 nm on SpectraMax i3 (Molecular Devices).

With `C#CCCCCNC(=O)COc1ccc2c(ccn2C(=O)C=C)c1` [NAIA-5], the “number of labeled cysteines in live cells compared with IAA” value in the series with HepG2 cells [1] is “higher number of labeled cysteines than IAA”. The “cellular toxicity (in words)” value with HepG2 cells [2] (10 μM for 1 h) is on record as “no significant cellular toxicity was found”. Besides, in the series on HepG2 cells [2] (MTT, 1 h incubation, read-out: IC50 (cytotoxicity)), the pIC50 (in general, the IC50 on a negative log10 scale, so that one unit is a factor of ten) is below 4.40. For the same molecule, the “cell viability (in words)” value in the series on HepG2 cells [2] (treatment for 1 h) is given as “no significant changes in viability of HepG2 cells”. In addition, in series [3] (10 μM, PBS/MeOH 4:1, room temperature), the “change of compound level in aqueous buffer solution over time (in words)” value was “No significant changes in NAIA-5 level in the aqueous buffer solution over time”. Further, the “time stable in PBS solution” value in series [3] (pH 7.4, absence of Cys) is at least 3 h.

`C#CCCCCNC(=O)CI` [IAA, N-Hex-5-ynyl-2-iodoacetamide, reference compound]: in the series on 231MFP cells, the “cytotoxicity (in words)” value is reported as “high cellular cytotoxicity”.
